Broadly, the MIC is the least concentration at which growth counts as inhibited. For orientation: IC50 means the midpoint of a concentration-inhibition curve. Lower therefore signals higher potency.

The values that follow come from ChEMBL document CHEMBL5505986, “Design, synthesis and biological evaluation of thiazolyl-halogenated pyrroles or pyrazoles as novel antibacterial and antibiofilm agents” (Eur J Med Chem, 2024).

Data set [1] can be described thus: Toxicity in Galleria mellonella larvae assessed as reduction in animal survival […]. The format is organism-based. To be noted: in vivo, 80 h.
The next data set deals with Enterococcus faecium. Put plainly: Antibacterial activity against clinical isolate Enterococcus faecium assessed as reduction in bacterial growth incubated for 24 hrs by broth microdilution method. The format is functional.
Another data set relates to NCI-H1975. The experiment in a line: Cytotoxicity against human NCI-H1975 cells measured after 72 hrs by SRB assay. The format is functional, cell-based. Particulars: NCI-H1975, 72 h. For orientation: Sulforhodamine B stains cellular protein and so reports cell mass.
The test system of a further data set is Staphylococcus aureus. Put plainly: Antibacterial activity against vancomycin-intermediate resistant Staphylococcus aureus ATCC 700699/Mu50 assessed as reduction in bacterial growth incubated for 24 hrs by broth microdilution method. The class given is functional. Background: Dilution methods test growth across graded concentrations, often in twofold steps.

For the next data set, the system named is Streptococcus pyogenes. The experiment in a line: Antibacterial activity against Streptococcus pyogenes ATCC 12204 assessed as reduction in bacterial growth incubated for 24 hrs by broth microdilution method. The class given is functional.
In the next data set the test system is NCI-H1299. Put plainly: Cytotoxicity against human NCI-H1299 cells measured after 72 hrs by SRB assay. To be noted: NCI-H1299, 72 h. The class given is functional, cell-based.

In brackets after ≈: the same amount, converted by molar mass.

Consider `O=C(c1cc(Cl)c(Cl)[nH]1)c1cc(Cl)cc(Cl)c1O`, for which the Activity result in data set [1] is on record as “Toxic”. Also, the figures for the MIC in the data set on Enterococcus faecium, in the data set on Staphylococcus aureus and with Streptococcus pyogenes were 0.5 µg/mL (≈ 1.54 µM), no more than 0.125 µg/mL and no more than 0.125 µg/mL, respectively. Further, the IC50 came to 0.59 µg/mL (≈ 1.82 µM) in the data set on NCI-H1975 and 0.82 µg/mL (≈ 2.52 µM) with NCI-H1299.
